Measured values taken from US8148391B2 (Cephalon, Inc., priority 2006, dated 2012).
Like-named read-outs stand apart in the source and are kept apart here.

Assays:
[1] = target: T1, baculovirus-expressed ALK (Homo sapiens, UniProt Q9UM73); experiment: ALK Kinase Assay (ELISA-type, time-resolved fluorescence); assay type: biochemical
T1 construct: host or cells: baculovirus expression system
Summary of the method: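 Wells were coated with phospholipase C-γ at 10 μg/mL in Tris-buffered saline. Adding 30 ng/ml enzyme started the reaction, which ran at 37° C for 15 minutes before Eu-N1 PT66 antibody detection. Percent inhibition versus log10 concentration gave IC50 by variable-slope fit.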

[2] = target: T2, c-Met (cytoplasmic domain) (Homo sapiens, UniProt P08581); experiment: c-Met Kinase Assay (same methods as for ALK, with modifications); assay type: biochemical
T2 construct: 10 ng/mL c-Met (cytoplasmic domain, Invitrogen Corporation #PV3143); purchased Invitrogen Corporation PV3143
Summary of the method: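 IC50 values were fitted by variable-slope sigmoidal regression of percent inhibition against log compound concentration. Phosphorylation was read with Eu-N1 PT66 antibody after a 15 min, 37 °C reaction. The reaction was initiated with 10 ng/mL c-Met cytoplasmic domain on wells coated with 10 μg/mL PLC-γ in TBS.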

[3] = ALK kinase inhibition, 1 μM ATP (Km level), read-out: ALK Activity
[4] = c-Met kinase inhibition, 1 μM ATP (Km level), read-out: cMet Activity
[5] = ALK kinase inhibition, 1 μM ATP, read-out: ALK Activity
[6] = c-Met kinase inhibition, 1 μM ATP, read-out: cMet Activity

T2 sequence (P08581 956-1390 limits assumed): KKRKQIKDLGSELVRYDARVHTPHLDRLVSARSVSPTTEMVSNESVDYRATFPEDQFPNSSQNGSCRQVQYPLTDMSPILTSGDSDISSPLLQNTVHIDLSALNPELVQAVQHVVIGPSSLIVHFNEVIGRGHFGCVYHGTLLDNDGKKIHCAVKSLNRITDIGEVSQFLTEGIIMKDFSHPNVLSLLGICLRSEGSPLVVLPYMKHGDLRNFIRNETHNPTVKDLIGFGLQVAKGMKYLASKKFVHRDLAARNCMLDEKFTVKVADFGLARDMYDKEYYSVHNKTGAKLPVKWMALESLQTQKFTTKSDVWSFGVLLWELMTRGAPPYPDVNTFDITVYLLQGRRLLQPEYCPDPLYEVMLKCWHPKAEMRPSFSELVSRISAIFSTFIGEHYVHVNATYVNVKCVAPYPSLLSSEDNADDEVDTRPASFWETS
T1 sequence (Q9UM73 19-1620): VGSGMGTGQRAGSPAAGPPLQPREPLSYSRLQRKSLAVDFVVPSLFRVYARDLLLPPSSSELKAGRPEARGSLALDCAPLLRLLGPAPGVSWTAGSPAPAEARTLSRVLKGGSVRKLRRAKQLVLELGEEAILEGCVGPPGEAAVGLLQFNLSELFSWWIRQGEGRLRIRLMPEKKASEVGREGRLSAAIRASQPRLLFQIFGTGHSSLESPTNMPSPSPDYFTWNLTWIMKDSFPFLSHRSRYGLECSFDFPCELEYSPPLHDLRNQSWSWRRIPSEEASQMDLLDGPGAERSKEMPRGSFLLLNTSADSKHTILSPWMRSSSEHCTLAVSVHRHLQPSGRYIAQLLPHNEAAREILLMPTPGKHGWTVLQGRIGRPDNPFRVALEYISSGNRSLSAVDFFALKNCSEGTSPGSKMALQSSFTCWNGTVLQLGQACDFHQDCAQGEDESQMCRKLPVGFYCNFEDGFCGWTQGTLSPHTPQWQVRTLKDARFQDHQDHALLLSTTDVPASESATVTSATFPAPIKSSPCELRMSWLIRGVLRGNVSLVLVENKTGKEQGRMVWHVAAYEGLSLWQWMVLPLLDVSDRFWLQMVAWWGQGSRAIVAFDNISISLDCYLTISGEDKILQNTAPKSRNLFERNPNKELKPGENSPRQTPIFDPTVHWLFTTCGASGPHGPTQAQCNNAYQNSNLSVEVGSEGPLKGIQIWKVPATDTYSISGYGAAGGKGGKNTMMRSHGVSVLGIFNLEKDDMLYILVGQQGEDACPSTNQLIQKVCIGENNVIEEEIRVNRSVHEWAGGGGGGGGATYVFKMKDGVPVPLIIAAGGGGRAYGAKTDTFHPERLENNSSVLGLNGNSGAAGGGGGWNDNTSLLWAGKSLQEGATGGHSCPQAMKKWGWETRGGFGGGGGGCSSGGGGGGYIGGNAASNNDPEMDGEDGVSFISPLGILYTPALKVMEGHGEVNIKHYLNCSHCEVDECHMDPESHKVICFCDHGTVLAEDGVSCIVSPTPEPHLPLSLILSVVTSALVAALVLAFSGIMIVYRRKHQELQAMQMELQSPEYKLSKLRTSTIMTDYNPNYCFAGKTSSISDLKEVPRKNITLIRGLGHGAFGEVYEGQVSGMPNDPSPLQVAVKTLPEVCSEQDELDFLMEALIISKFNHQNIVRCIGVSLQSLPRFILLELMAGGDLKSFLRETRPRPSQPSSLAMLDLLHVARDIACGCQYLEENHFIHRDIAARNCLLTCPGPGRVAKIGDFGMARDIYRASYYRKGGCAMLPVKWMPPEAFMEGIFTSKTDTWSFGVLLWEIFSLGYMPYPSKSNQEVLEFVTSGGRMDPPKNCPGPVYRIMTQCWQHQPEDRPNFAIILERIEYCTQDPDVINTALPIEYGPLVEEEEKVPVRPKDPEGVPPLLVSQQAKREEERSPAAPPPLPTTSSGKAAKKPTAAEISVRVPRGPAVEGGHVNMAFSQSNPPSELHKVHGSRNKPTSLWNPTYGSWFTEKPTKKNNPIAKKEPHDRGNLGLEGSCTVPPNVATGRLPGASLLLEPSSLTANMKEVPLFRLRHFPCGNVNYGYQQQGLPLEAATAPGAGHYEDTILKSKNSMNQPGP

Row | SMILES | IC50 [1, 3] [nM] | IC50 [2, 4] [nM] | IC50 [1, 5] [nM] | IC50 [2, 6] [nM] | also measured
1 | COCCN1CCc2ccc(Nc3ncc(Cl)c(Nc4ccccc4Cl)n3)cc2CC1 [Example 1376, 5-Chloro-N(4)-(2-chloro-phenyl)-N(2)-[3-(2-methoxy-ethyl)-2,3,4,5-tetrahydro-1H-benzo[d]azepin-7-yl]-pyrimidine-2,4-diamine] |  |  |  |  | IC50 ([1]; 1 μM ATP (Km level), 30 ng/ml ALK, 37° C., 15 minutes, read-out: ALK Activity (ALK kinase inhibition, IC50 class)): < 100 nM; IC50 ([2]; 1 μM ATP (Km level), 10 ng/mL c-Met, read-out: cMet Activity (c-Met kinase inhibition, IC50 class)): 100 to 1000 nM
2 | Cc1n[nH]c(-c2ccccc2Nc2nc(Nc3ccc4c(c3)CCOC(=O)N4C)ncc2Cl)n1 [Example 1788, 2-{5-Chloro-4-[2-(5-methyl-2H-[1,2,4]triazol-3-yl)-phenylamino]-pyrimidin-2-ylamino}-5-methyl-8,9-dihydro-5H-7-oxa-5-aza-benzocyclohepten-6-one] |  |  | < 100 | < 100 | 
3 | CNC(=O)c1cccc(F)c1Nc1nc(Nc2ccc3c(c2)NC(=O)CN(CCOC)C3)ncc1Cl [Example 1862, 2-{5-Chloro-2-[4-(2-methoxy-ethyl)-2-oxo-2,3,4,5-tetrahydro-1H-benzo[e][1,4]diazepin-8-ylamino]-pyrimidin-4-ylamino}-3-fluoro-N-methyl-benzamide] |  |  | 100 to 1000 | < 100 | 
4 | CC(=O)c1ccccc1Nc1nc(Nc2ccc3c(c2)CCCC(=O)N3C)ncc1Cl [Example 351, 7-[4-(2-Acetyl-phenylamino)-5-chloro-pyrimidin-2-ylamino]-1-methyl-1,3,4,5-tetrahydro-benzo[b]azepin-2-one] | < 100 | < 100 |  |  | 
5 | CCN1CC(=O)Nc2cc(Nc3ncc(Cl)c(Nc4ccccc4S(=O)(=O)N(C)C)n3)c(OC)cc2C1 [Example 1659, 2-[5-Chloro-2-(4-ethyl-7-methoxy-2-oxo-2,3,4,5-tetrahydro-1H-benzo[e][1,4]diazepin-8-ylamino)-pyrimidin-4-ylamino]-N,N-dimethyl-benzenesulfonamide] |  |  | < 100 | > 10000 | 
6 | COc1cc2c(cc1Nc1ncc(Cl)c(Nc3ccccc3S(=O)(=O)N3CCCC3)n1)CCN(CCO)CC2 [Example 1543, 2-(7-{5-Chloro-4-[2-(pyrrolidine-1-sulfonyl)-phenylamino]-pyrimidin-2-ylamino}-8-methoxy-1,2,4,5-tetrahydro-3-benzazepin-3-yl)-ethanol] |  |  | < 100 | 1000 to 10000 | 

Now from value to compound, other results behind:

Row | IC50 [1, 3] [nM] | IC50 [2, 4] [nM] | IC50 [1, 5] [nM] | IC50 [2, 6] [nM] | SMILES | also measured
7 | < 100 | 1000 to 10000 |  |  | CC(=O)OCCN1CCN(C)c2cc(Nc3ncc(Cl)c(N[C@@H]4CCCC[C@H]4NS(C)(=O)=O)n3)ccc2C1 [Example 476, Acetic acid 2-{8-[5-chloro-4-((1R,2R)-2-methanesulfonylamino-cyclohexylamino)-pyrimidin-2-ylamino]-1-methyl-1,2,3,5-tetrahydro-benzo[e][1,4]diazepin-4-yl}-ethyl ester] | 
8 |  |  | 100 to 1000 | < 100 | CCN1C(=O)CN(CCO)Cc2ccc(Nc3ncc(Cl)c(Nc4c(F)cccc4C(=O)NC)n3)cc21 [Example 1873, 2-{5-Chloro-2-[1-ethyl-4-(2-hydroxy-ethyl)-2-oxo-2,3,4,5-tetrahydro-1H-benzo[e][1,4]diazepin-8-ylamino]-pyrimidin-4-ylamino}-3-fluoro-N-methyl-benzamide] | 
9 | < 100 | < 100 |  |  | CNC(=O)c1cccc(F)c1Nc1nc(Nc2ccc3c(c2)CCCC(=O)N3CCOC)ncc1Cl [Example 356, 2-{5-Chloro-2-[1-(2-methoxy-ethyl)-2-oxo-2,3,4,5-tetrahydro-1H-benzo[b]azepin-7-ylamino]-pyrimidin-4-ylamino}-3-fluoro-N-methyl-benzamide] | 
10 |  |  | < 100 | < 100 | CCN1C(=O)CCC(C)(C)c2ccc(Nc3ncc(Cl)c(N[C@H]4[C@@H](C(N)=O)[C@@H]5C=C[C@H]4C5)n3)cc21 [Example 1586, (1S,2S,3R,4R)-3-[5-Chloro-2-(1-ethyl-5,5-dimethyl-2-oxo-2,3,4,5-tetrahydro-1H-benzo[b]azepin-8-ylamino)-pyrimidin-4-ylamino]-bicyclo[2.2.1]hept-5-ene-2-carboxylic acid amide] | 
